Experimental data: the NIST ThermoML archive (doi:10.1021/acs.jced.8b00008)

Assay: xn = mol fraction of the nth substance listed
Conditions: for viscosity / speed of sound / mass density: 102 kPa, Liquid; for viscosity: Concentric cylinders viscometry; for speed of sound: Single path-length method; for mass density: Vibrating tube method; for surface tension liquid-gas: Pendant drop shape

CCC1CCCCC1 [ethylcyclohexane] + CCCCCCCCCCCC
Conditions | mass density [kg/m3] | speed of sound [m/s] | surface tension liquid-gas [mN/m] | viscosity [mPa·s]
293.15 K, x1 = 0.1 | 751.13 | 1296.6 | – | 1.43
293.15 K, x1 = 0.216 | 754.22 | 1295.2 | – | 1.34
293.15 K, x1 = 0.2999 | 756.65 | 1294.3 | – | 1.3
293.15 K, x1 = 0.4 | 759.77 | 1293.4 | – | 1.22
293.15 K, x1 = 0.5 | 763.3 | 1292.4 | – | 1.16
293.15 K, x1 = 0.5999 | 767.13 | 1291.8 | – | 1.13
293.15 K, x1 = 0.7 | 771.4 | 1291.3 | – | 1.07
293.15 K, x1 = 0.8 | 776.25 | 1291.2 | – | 0.998
293.15 K, x1 = 0.9 | 781.76 | 1291.7 | – | 0.932
294 K, x1 = 0.216 | – | – | 25.1 | –
294 K, x1 = 0.2999 | – | – | 25.1 | –
294 K, x1 = 0.4 | – | – | 25.1 | –
294 K, x1 = 0.5 | – | – | 25.1 | –
294 K, x1 = 0.5999 | – | – | 25.2 | –
294 K, x1 = 0.8 | – | – | 25.2 | –
303.15 K, x1 = 0.1 | 743.84 | 1257.8 | – | 1.2
303.15 K, x1 = 0.216 | 746.88 | 1256.6 | – | 1.15
303.15 K, x1 = 0.2999 | 749.28 | 1255.1 | – | 1.1
303.15 K, x1 = 0.4 | 752.35 | 1254 | – | 1.04
303.15 K, x1 = 0.5 | 755.8 | 1253.1 | – | 0.966
303.15 K, x1 = 0.5999 | 759.56 | 1251.7 | – | 0.934
303.15 K, x1 = 0.7 | 763.73 | 1250.7 | – | 0.887
303.15 K, x1 = 0.8 | 768.48 | 1250 | – | 0.832
303.15 K, x1 = 0.9 | 773.85 | 1249.7 | – | 0.782
313.15 K, x1 = 0.1 | 736.53 | 1219.8 | – | 1.02
313.15 K, x1 = 0.216 | 739.51 | 1218.6 | – | 0.973
313.15 K, x1 = 0.2999 | 741.87 | 1216.7 | – | 0.939
313.15 K, x1 = 0.4 | 744.89 | 1215.3 | – | 0.899
313.15 K, x1 = 0.5 | 748.26 | 1214.3 | – | 0.876
313.15 K, x1 = 0.5999 | 751.95 | 1212.4 | – | 0.85
313.15 K, x1 = 0.7 | 756.03 | 1210.9 | – | 0.789
313.15 K, x1 = 0.8 | 760.66 | 1209.6 | – | 0.743
313.15 K, x1 = 0.9 | 765.89 | 1208.6 | – | 0.698
323.15 K, x1 = 0.1 | 729.18 | 1182.5 | – | 0.893
323.15 K, x1 = 0.216 | 732.1 | 1181.1 | – | 0.858
323.15 K, x1 = 0.2999 | 734.42 | 1179 | – | 0.823
323.15 K, x1 = 0.4 | 737.38 | 1177.4 | – | 0.79
323.15 K, x1 = 0.5 | 740.68 | 1176.1 | – | 0.759
323.15 K, x1 = 0.5999 | 744.29 | 1173.8 | – | 0.718
323.15 K, x1 = 0.7 | 748.27 | 1171.9 | – | 0.686
323.15 K, x1 = 0.8 | 752.78 | 1170 | – | 0.646
323.15 K, x1 = 0.9 | 757.88 | 1168.3 | – | 0.614
333.15 K, x1 = 0.1 | 721.79 | 1146.2 | – | 0.769
333.15 K, x1 = 0.216 | 724.65 | 1144.3 | – | 0.757
333.15 K, x1 = 0.2999 | 726.93 | 1142.1 | – | 0.713
333.15 K, x1 = 0.4 | 729.83 | 1140.5 | – | 0.685
333.15 K, x1 = 0.5 | 733.05 | 1138.6 | – | 0.667
333.15 K, x1 = 0.5999 | 736.58 | 1136.2 | – | 0.627
333.15 K, x1 = 0.7 | 740.46 | 1133.9 | – | 0.601
333.15 K, x1 = 0.8 | 744.85 | 1131.3 | – | 0.567
333.15 K, x1 = 0.9 | 749.79 | 1128.9 | – | 0.537

CCC1CCCCC1 [ethylcyclohexane] + CCCCCCCCCCCCCCCC
Conditions | mass density [kg/m3] | speed of sound [m/s] | surface tension liquid-gas [mN/m] | viscosity [mPa·s]
293.15 K, x1 = 0.0997 | 773.92 | 1353.2 | – | 3.17
293.15 K, x1 = 0.1997 | 774.6 | 1348.2 | – | 2.87
293.15 K, x1 = 0.3 | 775.39 | 1343.1 | – | 2.57
293.15 K, x1 = 0.4 | 776.26 | 1337.8 | – | 2.26
293.15 K, x1 = 0.4999 | 777.42 | 1331.4 | – | 1.99
293.15 K, x1 = 0.55 | 778.05 | 1328.1 | – | 1.89
293.15 K, x1 = 0.6 | 778.71 | 1325.3 | – | 1.73
293.15 K, x1 = 0.7001 | 780.35 | 1317.5 | – | 1.48
293.15 K, x1 = 0.8003 | 782.34 | 1309.8 | – | 1.25
293.15 K, x1 = 0.9 | 784.8 | 1301.6 | – | 1.04
296 K, x1 = 0.0997 | – | – | 26.8 | –
296 K, x1 = 0.1997 | – | – | 26.7 | –
296 K, x1 = 0.3 | – | – | 26.4 | –
296 K, x1 = 0.4 | – | – | 26.2 | –
296 K, x1 = 0.4999 | – | – | 26.3 | –
296 K, x1 = 0.55 | – | – | 26.2 | –
296 K, x1 = 0.6 | – | – | 26 | –
296 K, x1 = 0.7001 | – | – | 25.9 | –
296 K, x1 = 0.8003 | – | – | 25.7 | –
296 K, x1 = 0.9 | – | – | 25.4 | –
303.15 K, x1 = 0.0997 | 766.96 | 1315.5 | – | 2.54
303.15 K, x1 = 0.1997 | 767.62 | 1310.3 | – | 2.33
303.15 K, x1 = 0.3 | 768.36 | 1305.1 | – | 2.1
303.15 K, x1 = 0.4 | 769.18 | 1299.6 | – | 1.87
303.15 K, x1 = 0.4999 | 770.25 | 1292.9 | – | 1.67
303.15 K, x1 = 0.55 | 770.84 | 1289.4 | – | 1.58
303.15 K, x1 = 0.6 | 771.45 | 1286.4 | – | 1.46
303.15 K, x1 = 0.7001 | 772.96 | 1277.9 | – | 1.27
303.15 K, x1 = 0.8003 | 774.78 | 1269.5 | – | 1.07
303.15 K, x1 = 0.9 | 777.02 | 1260.2 | – | 0.896
313.15 K, x1 = 0.0997 | 760.01 | 1278.6 | – | 2.07
313.15 K, x1 = 0.1997 | 760.63 | 1273.4 | – | 1.9
313.15 K, x1 = 0.3 | 761.32 | 1268 | – | 1.74
313.15 K, x1 = 0.4 | 762.08 | 1262.2 | – | 1.56
313.15 K, x1 = 0.4999 | 763.06 | 1255.2 | – | 1.4
313.15 K, x1 = 0.55 | 763.61 | 1251.5 | – | 1.34
313.15 K, x1 = 0.6 | 764.16 | 1248.3 | – | 1.24
313.15 K, x1 = 0.7001 | 765.54 | 1239.2 | – | 1.08
313.15 K, x1 = 0.8003 | 767.19 | 1230 | – | 0.93
313.15 K, x1 = 0.9 | 769.2 | 1219.7 | – | 0.782
323.15 K, x1 = 0.0997 | 753.07 | 1242.7 | – | 1.73
323.15 K, x1 = 0.1997 | 753.64 | 1237.2 | – | 1.595
323.15 K, x1 = 0.3 | 754.28 | 1231.6 | – | 1.46
323.15 K, x1 = 0.4 | 754.97 | 1225.6 | – | 1.34
323.15 K, x1 = 0.4999 | 755.86 | 1218.3 | – | 1.21
323.15 K, x1 = 0.55 | 756.35 | 1214.3 | – | 1.15
323.15 K, x1 = 0.6 | 756.84 | 1211 | – | 1.09
323.15 K, x1 = 0.7001 | 758.08 | 1201.2 | – | 0.948
323.15 K, x1 = 0.8003 | 759.55 | 1191.3 | – | 0.822
323.15 K, x1 = 0.9 | 761.34 | 1180 | – | 0.693
333.15 K, x1 = 0.0997 | 746.13 | 1207.7 | – | 1.46
333.15 K, x1 = 0.1997 | 746.63 | 1202.1 | – | 1.355
333.15 K, x1 = 0.3 | 747.21 | 1196.2 | – | 1.25
333.15 K, x1 = 0.4 | 747.82 | 1189.9 | – | 1.16
333.15 K, x1 = 0.4999 | 748.62 | 1182.3 | – | 1.03
333.15 K, x1 = 0.55 | 749.06 | 1178 | – | 0.99
333.15 K, x1 = 0.6 | 749.49 | 1174.6 | – | 0.937
333.15 K, x1 = 0.7001 | 750.57 | 1164.1 | – | 0.821
333.15 K, x1 = 0.8003 | 751.86 | 1153.4 | – | 0.716
333.15 K, x1 = 0.9 | 753.41 | 1141.2 | – | 0.607
